Source: ChEMBL document CHEMBL4184320, “Optimization of Selective Mitogen-Activated Protein Kinase Interacting Kinases 1 and 2 Inhibitors for the Treatment of Blast Crisis Leukemia” (J Med Chem, 2018)
In brackets after ≈: the same amount, converted by molar mass.

Experiments:
[1] = target: MAP kinase-interacting serine/threonine-protein kinase 1 (Homo sapiens, UniProt Q9BUB5)
Description: Inhibition of GST-tagged MNK1 (37 to 341 residues) (unknown origin) expressed in Escherichia coli BL21(DE3) using JH3 peptide as substrate preincubated for 10 mins followed by substrate and ATP addition measured after 60 mins

[2] = target: MAP kinase-interacting serine/threonine-protein kinase 2 (Homo sapiens, UniProt Q9HBH9)
Description: Inhibition of GST-tagged MNK2 (72 to 385 residues) (unknown origin) expressed in Escherichia coli BL21(DE3) using JH3 peptide as substrate preincubated for 10 mins followed by substrate and ATP addition measured after 60 mins

[3] = target: MAP kinase-interacting serine/threonine-protein kinase 1/2 (Homo sapiens, UniProt Q9HBH9+Q9BUB5); assay: Inhibition of MNK1/2 in human HeLa cells assessed as decrease in eIF4E phosphorylation at Ser209 after 2 hrs by AlphaScreen assay; type: cell-based
[4] = Octanol-phosphate buffer partition coefficient, logD of compound at pH 7.4 by HPLC-UV analysis; type: physicochemical
[5] = Permeability of the compound by PAMPA; type: ADME; conditions: read-out: permeability
[6] = target: Cytochrome P450 2D6 (Homo sapiens, UniProt P10635); assay: Inhibition of CYP2D6 in human liver microsomes using dextromethorphan as substrate preincubated for 5 mins followed by NADPH addition by LC-MS/MS analysis; type: ADME
[7] = Thermodynamic solubility of the compound at pH 4 to 7.4 pION buffer after 18 hrs by UV spectrophotometric analysis; type: physicochemical; conditions: read-out: Therm_solubility
[8] = Apparent permeability of the compound across apical side to basolateral side in human Caco2 cells by LC-MS/MS analysis; type: ADME, cell-based; conditions: Caco-2
[9] = Efflux ratio of apparent permeability in human Caco2 cells by LC-MS/MS analysis; type: ADME, cell-based; conditions: Caco-2
[10] = Protein binding in human plasma at […] after 5 hrs by LC-MS/MS analysis; type: ADME, cell-free; conditions: read-out: PPB (converted)
[11] = Protein binding in mouse plasma at […] after 5 hrs by LC-MS/MS analysis; type: ADME, cell-free; conditions: read-out: PPB (converted)
[12] = target: Cytochrome P450 3A4 (Homo sapiens, UniProt P08684)
Description: Inhibition of CYP3A4 in human liver microsomes using midazolam as substrate preincubated for 5 mins followed by NADPH addition measured after 5 mins by LC-MS/MS analysis

[13] = in vitro; conditions: human, liver microsomes
Description: Half life in human liver microsomes at 1 uM in presence of NADPH by LC-MS/MS analysis

[14] = in vitro; conditions: mouse, liver microsomes
Description: Half life in mouse liver microsomes at 1 uM in presence of NADPH by LC-MS/MS analysis

[15] = target: Dual specificity mitogen-activated protein kinase kinase; MEK1/2 (Homo sapiens) (UniProt P36507+Q02750); assay: Inhibition of MEK (unknown origin) at 1 uM by KINOMEscan assay relative to control; type: protein assay
[16] = system: Tyrosine-protein kinase ABL1 (Homo sapiens), P00519 [E255K]; assay: Inhibition of human ABL1 E255K mutant (S229 to K512 residues) expressed in mammalian expression system at 1 uM by KINOMEscan assay relative to control
[17] = target: Tyrosine-protein kinase ABL1 (Homo sapiens) (UniProt P00519); assay: Inhibition of human ABL1 (S229 to K512 residues) expressed in mammalian expression system at 1 uM by KINOMEscan assay relative to control
[18] = target: Dual specificity mitogen-activated protein kinase kinase 1 (Homo sapiens) (UniProt Q02750); assay: Inhibition of human MEK1 (M1 to V393 residues) expressed in mammalian expression system at 1 uM by KINOMEscan assay relative to control
[19] = target: Dual specificity mitogen-activated protein kinase kinase 2 (Homo sapiens) (UniProt P36507); assay: Inhibition of human MEK2 (M1 to V400 residues) expressed in mammalian expression system at 1 uM by KINOMEscan assay relative to control
[20] = target: Proto-oncogene tyrosine-protein kinase receptor Ret (Homo sapiens) (UniProt P07949); assay: Inhibition of human RET (E713 to D1014 residues) expressed in bacterial expression system at 1 uM by KINOMEscan assay relative to control
[21] = AUClast in CD-1 mouse at 5 mg/kg, po administered via gavage as single dose by LC-MS/MS analysis; type: ADME, organism-based; parameters: dose 5 mg/kg, time 0 - last, route oral; conditions: in vivo
[22] = Cmax in CD-1 mouse at 5 mg/kg, po administered via gavage as single dose by LC-MS/MS analysis; type: ADME, organism-based; parameters: dose 5 mg/kg, route oral; conditions: in vivo

Cytochrome P450 2D6, sequence (P10635 whole entry): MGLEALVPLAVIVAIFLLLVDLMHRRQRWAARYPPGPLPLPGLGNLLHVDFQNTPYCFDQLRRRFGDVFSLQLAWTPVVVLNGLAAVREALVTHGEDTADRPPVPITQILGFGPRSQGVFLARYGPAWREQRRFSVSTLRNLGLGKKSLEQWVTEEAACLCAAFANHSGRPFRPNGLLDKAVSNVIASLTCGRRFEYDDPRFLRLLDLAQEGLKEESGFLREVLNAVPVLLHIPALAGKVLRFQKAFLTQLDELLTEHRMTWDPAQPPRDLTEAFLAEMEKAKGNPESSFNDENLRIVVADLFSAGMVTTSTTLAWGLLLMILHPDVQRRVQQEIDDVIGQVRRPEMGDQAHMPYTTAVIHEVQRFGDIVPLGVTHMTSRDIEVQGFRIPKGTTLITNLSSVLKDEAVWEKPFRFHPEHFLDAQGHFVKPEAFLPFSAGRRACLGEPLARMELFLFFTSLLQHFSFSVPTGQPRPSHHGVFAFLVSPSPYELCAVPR
MAP kinase-interacting serine/threonine-protein kinase 1, sequence (Q9BUB5 whole entry): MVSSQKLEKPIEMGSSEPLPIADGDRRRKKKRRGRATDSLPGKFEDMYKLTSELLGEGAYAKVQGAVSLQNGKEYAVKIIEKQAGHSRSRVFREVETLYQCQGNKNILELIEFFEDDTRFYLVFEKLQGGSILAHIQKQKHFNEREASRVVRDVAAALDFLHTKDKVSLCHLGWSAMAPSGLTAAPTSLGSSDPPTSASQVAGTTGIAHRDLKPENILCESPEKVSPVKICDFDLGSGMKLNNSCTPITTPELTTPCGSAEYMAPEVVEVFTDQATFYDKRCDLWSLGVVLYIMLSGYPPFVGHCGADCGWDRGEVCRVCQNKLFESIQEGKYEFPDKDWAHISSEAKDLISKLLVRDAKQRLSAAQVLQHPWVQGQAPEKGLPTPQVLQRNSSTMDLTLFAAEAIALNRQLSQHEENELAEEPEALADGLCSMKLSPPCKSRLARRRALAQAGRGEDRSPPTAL
MAP kinase-interacting serine/threonine-protein kinase 2, sequence (Q9HBH9 whole entry): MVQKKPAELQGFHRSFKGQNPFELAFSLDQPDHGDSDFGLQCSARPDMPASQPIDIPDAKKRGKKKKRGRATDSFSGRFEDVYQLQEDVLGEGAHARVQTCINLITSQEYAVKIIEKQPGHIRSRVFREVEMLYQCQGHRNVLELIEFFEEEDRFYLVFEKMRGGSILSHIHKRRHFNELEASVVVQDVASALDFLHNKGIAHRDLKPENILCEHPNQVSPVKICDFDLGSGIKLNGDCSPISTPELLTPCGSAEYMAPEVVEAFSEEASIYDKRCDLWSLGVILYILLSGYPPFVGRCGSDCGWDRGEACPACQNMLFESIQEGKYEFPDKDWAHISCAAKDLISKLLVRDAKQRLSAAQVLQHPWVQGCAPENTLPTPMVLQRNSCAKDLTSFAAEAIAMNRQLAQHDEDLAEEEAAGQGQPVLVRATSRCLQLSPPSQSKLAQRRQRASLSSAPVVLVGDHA
Cytochrome P450 3A4, sequence (P08684 whole entry): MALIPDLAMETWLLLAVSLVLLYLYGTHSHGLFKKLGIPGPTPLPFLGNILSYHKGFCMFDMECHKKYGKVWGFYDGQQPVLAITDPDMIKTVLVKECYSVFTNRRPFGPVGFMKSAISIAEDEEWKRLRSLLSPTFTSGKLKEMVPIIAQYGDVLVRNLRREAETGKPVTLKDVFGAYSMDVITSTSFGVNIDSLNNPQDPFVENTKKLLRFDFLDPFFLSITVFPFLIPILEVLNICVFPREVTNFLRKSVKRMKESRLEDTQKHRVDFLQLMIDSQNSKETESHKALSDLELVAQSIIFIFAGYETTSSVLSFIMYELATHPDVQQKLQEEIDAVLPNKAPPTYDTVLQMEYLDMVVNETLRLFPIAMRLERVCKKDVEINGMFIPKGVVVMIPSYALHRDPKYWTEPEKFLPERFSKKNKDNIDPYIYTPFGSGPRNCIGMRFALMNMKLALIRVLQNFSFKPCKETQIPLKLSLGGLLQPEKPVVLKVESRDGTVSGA
Proto-oncogene tyrosine-protein kinase receptor Ret (Homo sapiens), sequence (P07949 whole entry, the tested form may be a part): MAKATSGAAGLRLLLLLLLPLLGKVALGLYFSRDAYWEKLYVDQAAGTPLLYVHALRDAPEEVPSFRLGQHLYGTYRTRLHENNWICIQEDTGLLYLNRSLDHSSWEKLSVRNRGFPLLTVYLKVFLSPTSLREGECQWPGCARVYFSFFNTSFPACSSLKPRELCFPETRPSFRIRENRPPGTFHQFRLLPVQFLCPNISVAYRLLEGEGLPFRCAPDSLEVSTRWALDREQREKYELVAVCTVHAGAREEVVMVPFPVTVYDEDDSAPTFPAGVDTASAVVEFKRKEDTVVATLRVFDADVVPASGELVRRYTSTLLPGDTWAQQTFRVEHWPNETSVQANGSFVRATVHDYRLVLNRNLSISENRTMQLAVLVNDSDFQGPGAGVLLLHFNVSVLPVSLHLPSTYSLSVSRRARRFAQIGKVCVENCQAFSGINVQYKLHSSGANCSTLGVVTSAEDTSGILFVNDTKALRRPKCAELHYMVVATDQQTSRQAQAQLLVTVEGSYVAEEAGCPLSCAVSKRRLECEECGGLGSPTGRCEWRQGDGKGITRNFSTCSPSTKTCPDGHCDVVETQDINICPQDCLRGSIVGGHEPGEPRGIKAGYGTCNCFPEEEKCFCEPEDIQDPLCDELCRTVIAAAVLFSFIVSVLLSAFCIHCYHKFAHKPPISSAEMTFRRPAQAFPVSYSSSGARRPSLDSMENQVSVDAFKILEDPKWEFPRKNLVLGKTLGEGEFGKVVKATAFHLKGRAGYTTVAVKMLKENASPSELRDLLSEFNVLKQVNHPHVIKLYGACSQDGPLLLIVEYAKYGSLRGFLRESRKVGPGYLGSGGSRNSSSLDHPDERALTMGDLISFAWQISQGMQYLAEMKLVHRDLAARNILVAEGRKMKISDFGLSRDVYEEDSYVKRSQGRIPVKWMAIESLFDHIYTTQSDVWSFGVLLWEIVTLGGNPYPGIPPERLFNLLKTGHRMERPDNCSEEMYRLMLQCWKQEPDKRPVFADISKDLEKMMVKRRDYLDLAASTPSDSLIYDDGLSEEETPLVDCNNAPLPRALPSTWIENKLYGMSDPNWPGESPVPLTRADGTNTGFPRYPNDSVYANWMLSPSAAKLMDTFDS
Tyrosine-protein kinase ABL1 (Homo sapiens), P00519 [E255K], sequence (P00519 whole entry E255K, the tested form may be a part): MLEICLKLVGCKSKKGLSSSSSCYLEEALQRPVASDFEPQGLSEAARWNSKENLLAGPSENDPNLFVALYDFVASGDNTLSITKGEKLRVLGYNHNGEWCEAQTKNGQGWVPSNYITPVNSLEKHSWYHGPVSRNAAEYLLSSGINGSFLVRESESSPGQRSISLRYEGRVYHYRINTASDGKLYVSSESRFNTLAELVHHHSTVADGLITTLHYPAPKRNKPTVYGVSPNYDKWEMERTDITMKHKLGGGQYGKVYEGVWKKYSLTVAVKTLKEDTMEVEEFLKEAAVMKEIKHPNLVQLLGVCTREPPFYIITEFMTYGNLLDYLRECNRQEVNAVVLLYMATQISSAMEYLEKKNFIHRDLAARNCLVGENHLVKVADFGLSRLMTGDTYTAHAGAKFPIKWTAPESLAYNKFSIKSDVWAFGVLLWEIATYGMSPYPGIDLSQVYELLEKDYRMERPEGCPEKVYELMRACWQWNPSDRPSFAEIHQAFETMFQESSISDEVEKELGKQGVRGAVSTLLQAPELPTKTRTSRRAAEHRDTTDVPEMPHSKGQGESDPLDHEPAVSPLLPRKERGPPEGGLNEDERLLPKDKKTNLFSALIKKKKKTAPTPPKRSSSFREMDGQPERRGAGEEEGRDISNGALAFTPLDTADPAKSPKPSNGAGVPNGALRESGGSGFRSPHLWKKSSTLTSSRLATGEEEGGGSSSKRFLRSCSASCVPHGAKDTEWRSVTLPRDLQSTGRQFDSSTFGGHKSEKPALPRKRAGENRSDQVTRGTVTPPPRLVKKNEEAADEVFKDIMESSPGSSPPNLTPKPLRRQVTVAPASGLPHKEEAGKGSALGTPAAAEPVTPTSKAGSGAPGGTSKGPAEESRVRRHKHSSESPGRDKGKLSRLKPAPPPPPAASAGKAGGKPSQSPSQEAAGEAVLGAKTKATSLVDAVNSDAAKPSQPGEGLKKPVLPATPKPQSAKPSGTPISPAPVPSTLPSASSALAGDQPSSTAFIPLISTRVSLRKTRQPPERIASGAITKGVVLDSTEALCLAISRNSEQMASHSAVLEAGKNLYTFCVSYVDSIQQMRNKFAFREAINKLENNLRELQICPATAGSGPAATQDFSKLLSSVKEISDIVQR
Dual specificity mitogen-activated protein kinase kinase 2 (Homo sapiens), sequence (P36507 whole entry, the tested form may be a part): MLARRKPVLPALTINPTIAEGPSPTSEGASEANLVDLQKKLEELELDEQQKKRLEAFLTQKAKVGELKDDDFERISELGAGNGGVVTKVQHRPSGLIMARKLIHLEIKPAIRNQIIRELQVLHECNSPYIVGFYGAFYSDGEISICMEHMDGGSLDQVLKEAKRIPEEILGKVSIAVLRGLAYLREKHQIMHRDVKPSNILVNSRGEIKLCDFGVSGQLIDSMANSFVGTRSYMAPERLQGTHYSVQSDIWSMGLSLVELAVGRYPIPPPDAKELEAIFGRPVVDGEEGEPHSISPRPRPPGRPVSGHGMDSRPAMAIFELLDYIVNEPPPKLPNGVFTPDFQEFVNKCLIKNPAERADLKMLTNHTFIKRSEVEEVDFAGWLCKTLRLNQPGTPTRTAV
Dual specificity mitogen-activated protein kinase kinase 1 (Homo sapiens), sequence (Q02750 whole entry, the tested form may be a part): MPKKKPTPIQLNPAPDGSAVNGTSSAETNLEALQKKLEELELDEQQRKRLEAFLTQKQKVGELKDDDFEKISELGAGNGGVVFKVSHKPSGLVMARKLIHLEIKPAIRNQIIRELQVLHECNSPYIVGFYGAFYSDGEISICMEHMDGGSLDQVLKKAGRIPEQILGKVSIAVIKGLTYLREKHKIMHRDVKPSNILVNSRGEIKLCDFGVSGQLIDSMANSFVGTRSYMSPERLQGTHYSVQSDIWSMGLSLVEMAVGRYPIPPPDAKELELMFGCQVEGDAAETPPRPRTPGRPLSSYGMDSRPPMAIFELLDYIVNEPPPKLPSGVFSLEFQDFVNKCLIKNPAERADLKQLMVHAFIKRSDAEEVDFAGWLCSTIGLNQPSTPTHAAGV

SMILES | IC50 [1] [nM] | IC50 [2] [nM] | IC50 [3] [nM] | logD [4] | Papp [5] [×10⁻⁶ cm/s] | solubility thermodynamic at 18 h [7] [µg/mL] | also measured
CC(=O)N1CCN(C(=O)c2ccc(-c3cn4c(-c5ccc(O)cc5)cnc4cn3)cc2)CC1 | 224 | 160 | > 2500 | 1.68 | 2.82 | 144 (≈ 326 µM) | 
CC(=O)Nc1cn2c(-c3ccc(O)cc3)cnc2cn1 | 789 | 515 | > 2500 |  |  |  | 
N#Cc1ccc(-c2cnc3cnc(-c4ccc(C(=O)N5CCOCC5)cc4)cn23)cc1 | 570 | 454 | 748 | 1.77 | 43.1 | 11.1 (≈ 27.1 µM) | IC50 [6]: > 20000 nM; Papp A→B [8]: 17.9 ×10⁻⁶ cm/s; efflux ratio [9]: 1.73; IC50 [12]: > 20000 nM; half-life at 1 µM [13]: > 60 min; half-life at 1 µM [14]: > 60 min
O=C(Nc1cn2c(-c3ccc(O)cc3)cnc2cn1)c1ccccc1 | 3350 | 1080 |  |  |  |  | 
CN1CCN(C(=O)c2ccc(-c3cn4c(-c5ccccc5O)cnc4cn3)cc2)CC1 | 9500 | 5170 |  |  |  |  | 
CN1CCN(C(=O)c2ccc(-c3cn4c(-c5ccc(C(=O)NO)cc5)cnc4cn3)cc2)CC1 | 60 | 31 | > 2500 |  |  |  | 
CN1CCN(C(=O)c2ccc(-c3cn4c(-c5cccc(O)c5)cnc4cn3)cc2)CC1 | 1300 | 742 | 1330 | 2.31 | 33.2 | 116 (≈ 281 µM) | 
CN1CCN(C(=O)c2ccc(-c3cn4c(-c5ccc(O)cc5)cnc4cn3)cc2)CC1 | 284 | 140 | 189 | 2.25 | 34.7 | 114 (≈ 276 µM) | 
CN1CCN(C(=O)c2ccc(-c3cn4c(-c5ccc(C(=O)O)cc5)cnc4cn3)cc2)CC1 | 700 | 355 | > 2500 | -1.37 | 0.1 | > 22 | 
CN1CCN(C(=O)c2ccc(-c3cn4c(-c5ccc(C(F)(F)F)cc5)cnc4cn3)cc2)CC1 | 574 | 389 | 1990 | 2.95 | 87.4 | 90.4 (≈ 194 µM) | 
CN1CCN(C(=O)c2ccc(-c3cn4c(-c5ccccc5)cnc4cn3)cc2)CC1 | 2680 | 1430 | 1920 |  |  |  | 
CN1CCN(C(=O)c2ccc(-c3cn4c(-c5ccc(C(F)F)cc5)cnc4cn3)cc2)CC1 | 369 | 336 | 1630 | 2.55 | 76.2 | 66.9 (≈ 150 µM) | 
O=C(c1ccc(-c2cn3c(-c4ccc(O)cc4)cnc3cn2)cc1)N1CCOCC1 | 125 | 113 | 130 | 2.21 | 50.2 | 11.5 (≈ 28.7 µM) | 
NC(=O)c1ccc(-c2cn3c(-c4ccc(O)cc4)cnc3cn2)cc1 | 310 | 193 | 1080 | 2.03 | 22.7 |  | IC50 [6]: > 20000 nM; IC50 [12]: > 20000 nM; half-life at 1 µM [13]: 60 min; half-life at 1 µM [14]: 46 min
Nc1ncnc2[nH]nc(Nc3ccc(F)cc3)c12 |  |  |  |  |  |  | inhibition [15]: > 99%; inhibition [16]: > 99%; inhibition [17]: > 99%; inhibition [18]: > 99%; inhibition [19]: > 99%; inhibition [20]: > 99%
CN(C)C1CCN(C(=O)c2ccc(-c3ccc4ncc(-c5ccc(C#N)cc5)n4n3)cc2)CC1 | 9 | 11 | 431 | 2.19 | 75.3 | 148 (≈ 328 µM) | Papp A→B [8]: 3 ×10⁻⁶ cm/s; efflux ratio [9]: 13.3; AUC(0-t) [21]: 347 ng·h/mL; Cmax [22]: 69 ng/mL; half-life at 1 µM [13]: 47 min; half-life at 1 µM [14]: > 60 min

Now from value to molecule, other results behind:

IC50 [1] [nM] | IC50 [2] [nM] | IC50 [3] [nM] | logD [4] | Papp [5] [×10⁻⁶ cm/s] | solubility thermodynamic at 18 h [7] [µg/mL] | SMILES | also measured
20 | 25 | 326 | 2.82 | 25 | 86 (≈ 204 µM) | CN1CCN(C(=O)c2ccc(-c3ccc4ncc(-c5ccc(C#N)cc5)n4n3)cc2)CC1 | IC50 [6]: > 20000 nM; Papp A→B [8]: 14.6 ×10⁻⁶ cm/s; efflux ratio [9]: 4.84; fraction unbound at 5 h [10]: 0.001; fraction unbound at 5 h [11]: 0.041; IC50 [12]: > 20000 nM; half-life at 1 µM [13]: 17 min; half-life at 1 µM [14]: 23 min
84 | 72 | 229 | 2.48 | 81.9 | 137 (≈ 325 µM) | CN1CCN(C(=O)c2ccc(-c3ccc4ncc(-c5ccc(C#N)cc5)n4c3)cc2)CC1 | IC50 [6]: > 20000 nM; Papp A→B [8]: 5.43 ×10⁻⁶ cm/s; efflux ratio [9]: 4.84; fraction unbound at 5 h [10]: 0.003; fraction unbound at 5 h [11]: 0.0967; IC50 [12]: 3900 nM; half-life at 1 µM [13]: 20 min; half-life at 1 µM [14]: 11 min
238 | 143 | 640 | 0.73 | 64.7 | > 45 | CN(C)C1CCN(C(=O)c2ccc(-c3cn4c(-c5ccc(C#N)cc5)cnc4cn3)cc2)CC1 | IC50 [6]: > 20000 nM; Papp A→B [8]: 1.14 ×10⁻⁶ cm/s; efflux ratio [9]: 7.57; IC50 [12]: > 20000 nM; half-life at 1 µM [13]: > 60 min; half-life at 1 µM [14]: > 60 min
294 | 187 | > 2500 | 0.98 | 1.78 | 126 (≈ 286 µM) | CN1CCN(C(=O)c2ccc(-c3cn4c(-c5ccc(C(N)=O)cc5)cnc4cn3)cc2)CC1 | 
600 | 410 | 1210 |  |  |  | Cc1ccc(-c2cnc3cnc(-c4ccc(C(=O)N5CCN(C)CC5)cc4)cn23)cc1 | 
16 | 26 | 220 | 2 | 45.8 | 115 (≈ 282 µM) | N#Cc1ccc(-c2cnc3ccc(-c4ccc(C(=O)N5CCNCC5)cc4)nn23)cc1 | Papp A→B [8]: 1.13 ×10⁻⁶ cm/s; efflux ratio [9]: 29.9; IC50 [12]: 5600 nM; half-life at 1 µM [13]: > 60 min; half-life at 1 µM [14]: 42 min
331 | 217 | 759 | 2.96 | 71.3 | 118 (≈ 273 µM) | CN1CCN(C(=O)c2ccc(-c3cn4c(-c5ccc(Cl)cc5)cnc4cn3)cc2)CC1 | 
528 | 415 | 819 |  |  |  | Oc1ccc(-c2cnc3cnc(-c4ccccc4)cn23)cc1 | 
